According to ChEMBL document CHEMBL1201862, “PubChem BioAssay data set” (2004):
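Protocol summary: plate cells (96-well), add compound at 5 concentrations, incubate 48 h, interpolate endpoints linearly. The concentration for 50% growth inhibition is given as GI50.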 Activity calls are given as the source filed them. No stated cut-off is given here; in the data, active = GI50 up to about 1.1 µM and inactive = higher.

Tested on: BT-549
Test: NCI-60 cell line screen, 48 h

SMILES	GI50
COc1c(/C=C/C(C)(C)O)cc(C2CC(=O)c3c(O)cc(O)cc3O2)cc1CC=C(C)C (stereo unspecified)	8.49 µM (inactive)
CN(Cc1cnc2nc(N)nc(N)c2n1)c1ccc(C(=O)NC23CC4CC(CC(C4)C2)C3)cc1	11.8 µM (inactive)
O=C(CCCCCCCCC(=O)N1C(=O)CC(=O)N(c2cccc(Cl)c2)C1=S)N1C(=O)CC(=O)N(c2cccc(Cl)c2)C1=S	44.1 µM (inactive)
C[C@H]1S[C@H](c2c(Cl)cccc2Cl)N2Cc3ccccc3N=C12	28.2 µM (inactive)
CCCCC(=O)OC[n+]1cccc(-c2c(COC(=O)NC(C)C)c(COC(=O)NC(C)C)c3n2CCC3)c1	28.8 µM (inactive)
O=C1c2ccccc2C(C2c3ccccc3C(=O)c3cc(Br)ccc32)c2ccc(Br)cc21 (stereo unspecified)	> 100 µM (inactive)
COc1cc2c(cc1OC)CN1CCCc3cc(OC)c(OC)cc3C1C2 (stereo unspecified)	99.3 µM (inactive)
C/C(=N\NC(=S)NCCCNC(=S)N/N=C(\C)c1ccccn1)c1ccccn1	3.13 µM (inactive)
O=C(OCc1ccccc1)N(CCCCN(CCCNCc1ccccc1)C(=O)OCc1ccccc1)CCCNCc1ccccc1	1.62 µM (inactive)
CC1(c2ccc(Cl)cc2)CC(c2ccc(Cl)cc2)=C(C#N)C(=C(C#N)C#N)N1 (stereo unspecified)	19.4 µM (inactive)
COc1cc(/C=C/C(C)=O)ccc1OP(=O)(O)O	> 100 µM (inactive)
CC1=NN(c2cccc(Cl)c2)C2(C1=Cc1cccs1)C(Cl)C(=O)N2c1nc2ccccc2s1 (stereo unspecified)	25.2 µM (inactive)
COC(=O)C1=C(C)NC(C)=C(C(=O)OC)C1c1nc2sccn2c1[N+](=O)[O-]	> 100 µM (inactive)
Cc1ccc(C2SC(=N)Nc3c2c(C)nn3C(=O)c2ccc(Cl)cc2)cc1 (stereo unspecified)	> 10 µM (inactive)
COc1ccc2c(c1)c1nn(CCN3CCCCC3)c3ccc4c(=O)n(CCN(C)C)c(=O)n2c4c13	0.245 µM (active)
O=c1[nH]c(=O)n([C@@H]2O[C@H](CO)[C@@H](O)[C@@H]2F)cc1I [FIALURIDINE]	39.2 µM (inactive)
CN1CC2=C(N=C(S)NC2c2ccc(Cl)cc2)/C(=C/c2ccc(Cl)cc2)C1 (stereo unspecified)	20.4 µM (inactive)
Cc1c(C(=O)N2CCN(c3ccc([N+](=O)[O-])cc3)CC2)[n+]([O-])c2cc(Cl)c(Cl)cc2[n+]1[O-]	16.9 µM (inactive)

SMILES	GI50
Cc1ccc(SC2=C(N(C)C)C(=O)c3ccccc3C2=O)cc1	6.43 µM (inactive)
O=c1cc(CO)n(CCc2c[nH]c3ccccc23)cc1O	> 100 µM (inactive)
O=C(Cn1c2c(c3ccccc31)CCCC2)N1CCCC1	> 100 µM (inactive)
CCOc1cc(C(c2c(O)c3ccccc3oc2=O)c2c(O)c3ccccc3oc2=O)ccc1OC	20.7 µM (inactive)
Cc1cc(=O)oc2cc(SC(=O)N(C)C)ccc12	> 100 µM (inactive)
CC(C)=CC(O)C/C(C)=C/CC/C(C)=C/CCC1(C)C(CCCO)/C(=C(/C)C=O)CCC1(C)O (stereo unspecified)	40.6 µM (inactive)
O=S1OC[C@H](CCCl)O1 (stereo partly specified)	> 100 µM (inactive)
c1ccc(CN2CCC(CNc3ncnc4ccccc34)C2)cc1 (stereo unspecified)	> 100 µM (inactive)
COc1cc(/C=C2\N=C(c3ccccc3)N(c3nc4c(OC)ccc(OC)c4s3)C2=O)cc(OC)c1OC	> 100 µM (inactive)
COC1/C=C/C(C)C(O)CC(O)/C=C/C(C)C(C(C)C(OC)C(C)CCC(=O)C(C)C(C/C=C/N(C)C=O)OC)OC(=O)/C=C/C=C(\C)CC(OC)CC2=CC(=O)O[C@@H](C(C)C(OC)C1)[C@H]2O (stereo partly specified)	0.0311 µM (active)
CC[C@@]1(O)C(=O)OCc2c1cc1n(c2=O)Cc2c-1nc1ccccc1c2/C=N/NC(=O)c1ccc(N)cc1	0.391 µM (active)
C1=NN2C(c3ccccc3)=NOC2C2C(c3ccccc3)=NOC12 (stereo unspecified)	> 100 µM (inactive)
CC(=O)OC/C=C(/CCl)CCC(Br)C(C)(C)Br.CC(=O)OC/C=C(\CCl)CCC(Br)C(C)(C)Br (stereo unspecified)	> 10 µM (inactive)
CN(C)/C=N/c1cc(=O)n(C)c(=O)n1C	> 100 µM (inactive)
c1ccc(C[N+]23CN4CN(CN(C4)C2)C3)cc1	48.2 µM (inactive)
CC(=O)OCCC[C@@H]1C(=C(C)C)CCC2[C@@]1(C)CC[C@@]1(C)C[C@](C)(CCC=C(C)C)CC[C@]21C (stereo partly specified)	> 100 µM (inactive)
CN(C)c1n/c(=N/Cc2ccncc2)ss1	19.8 µM (inactive)
CC(C)OC(=O)C1(C(C)C)CCc2ccc(C(=O)CCC(=O)O)cc21 (stereo unspecified)	> 100 µM (inactive)
